Data reported in patent US20090062255A1, “TUMOR-TARGETING EVALUATION METHODOLOGY AND COMPOUNDS RELATED THERETO” (THALLION PHARMACEUTICALS INC., priority 2007, published 2009).

Legend:
SRBC = assay: Hemolysis of SRBC; type: cell-based; settings: concentration necessary to achieve 50% hemolysis of SRBC
[1] = test system: prenylation of Ras, RAP1A and HDJ2 (FTase, GGTase I); assay: Protein prenylation immunoblot (FTase and GGTase I activities) in MCF-7 cells; type: cell-based, human; settings: MCF7 cells, 3, 10 and 30 μM, 24 h
Procedure: It was first verified if ECO-4601 interferes with Ras processing by monitoring FTase and GGTase I activities by immunoblot analysis. For these experiments, exponentially growing MCF-7 (human breast tumor) cells were seeded in 60 mm cell culture dishes at a density of 2.5×10^6 cells per dish. After an 18 h incubation period, ECO-4601 or lovastatin (Sigma-Aldrich, St. Louis, Mo.) were added at a final concentration of 3, 10 and 30 μM for 24 h. Cells were also treated with the vehicle alone (0.05% DMSO) for the same incubation periods. Treated and control cells were lysed in ice-cold RIPA buffer (50 mM Tris-HCl pH 7.4, 1% Triton X-100, 1% deoxycholate, 0.1% SDS, 150 mM NaCl, and 1 mM EDTA) containing protease inhibitors (Roche, Mannheim, Germany) and phosphatase inhibitors (EMD Biosciences, Calbiochem, San Diego, Calif.) for 20 minutes on ice. After lysis, cell debris was removed by centrifugation at 12000×g for 10 min. […] Bound antibodies were detected using horseradish peroxidase-conjugated secondary antibodies (Jackson ImmunoResearch Laboratories Inc., West Grove, Pa.) for 1 h at room temperature in 0.5% skim milk-TBS, visualized by treating the membranes with enhanced chemiluminescence reagents (Millipore, Mississauga, ON, Canada) and exposing them to BioMax Light Films (Kodak, Mississauga, ON, Canada). […]

[2] = test system: HT-29 (colorectal carcinoma); assay: In vitro cytotoxic activity (GI50, propidium iodide), HT-29; type: cell-based; settings: method (2), 96 hrs
Procedure: (§1) Procedures used for each series of tests are described below.
(§2) Compounds were dissolved at 10 mM in DMSO. […] The following day, propidium iodide was added to one of the two plates and fluorescence measured (Tz). […] Each compound was tested at each concentration and in triplicates. The equivalent cell number was determined after adding propidium iodide by measuring the signal by fluorescence (C for control).

[3] = test system: PC-3 (prostate adenocarcinoma); assay: In vitro cytotoxic activity (GI50, propidium iodide), PC-3; type: cell-based, human; settings: method (2)
Procedure: as §1, §2

SF268 (CNS) = assay: In vitro cytotoxic activity (GI50, propidium iodide), SF-268; type: cell-based; settings: method (2), 96 hrs
Procedure: as §1, §2

[4] = test system: MDA-MB-231 (mammary gland adenocarcinoma); assay: In vitro cytotoxic activity (GI50, propidium iodide), MDA-MB-231; type: cell-based, human; settings: method (2), 96 hrs
Procedure: as §1, §2

[5] = target: T1, peripheral benzodiazepine receptor (PBR) (Rattus norvegicus, UniProt P16257); assay: In-house PBR binding assay ([3H]PK11195, rat heart mitochondrial membranes); settings: in-house radioligand-binding assay
T1 construct: CBR and PBR were obtained from rat brain and heart membrane-fractions, respectively; from tissue; host or cells: Wistar rat heart membranes

SMILES | Hemolysis (ED50 μg/mL) (SRBC) | also measured
CCCCN1c2c(O)cccc2C(=O)N(C/C=C(\C)CC/C=C(\C)CCC=C(C)C)c2cc(O)cc(O)c21 [Compound 64, 10-farnesyl-4,6,8-trihydroxy-5-n-butyl-5,10-dihydro-dibenzo[b,e][1,4]diazepin-11-one] | >64 µg/mL | 
CC(C)=CCC/C(C)=C/CC/C(C)=C/CN1C(=O)c2cccc(O)c2Nc2c1cc(O)c(Br)c2O [Compound 97, 10-(farnesyl)-7-bromo-4,6,8-trihydroxy-5,10-dihydro-dibenzo[b,e][1,4]diazepin-11-one] | 15.1 µg/mL | 
CCCN1c2c(O)cccc2C(=O)N(C/C=C(\C)CC/C=C(\C)CCC=C(C)C)c2cc(O)cc(O)c21 [Compound 63, 10-farnesyl-4,6,8-trihydroxy-5-n-propyl-5,10-dihydro-dibenzo[b,e][1,4]diazepin-11-one] | >64 µg/mL | 
CCN1c2c(O)cccc2C(=O)N(CC=C(C)CCCC(C)(CCCC(C)(C)OC)OC)c2cc(O)cc(O)c21 (stereo not shown) [Compound 87, 10-(7,11-dimethoxy-3,7,11-trimethyl-2-dodecenyl)-4,6,8-trihydroxy-5-ethyl-5,10-dihydro-dibenzo[b,e][1,4]diazepin-11-one] | >64 µg/mL | 
CC(C)=CCCC(C)(O)CCCC(C)=CCN1C(=O)c2cccc(O)c2Nc2c(O)cc(O)cc21 (stereo not shown) [Compound 89, 10-(7-hydroxy-3,7,11-trimethyldodeca-2,10-dienyl)-4,6,8-trihydroxy-5,10-dihydro-dibenzo[b,e][1,4]diazepin-11-one] | >64 µg/mL | 
COC(C)(CCC=C(C)C)CCC/C(C)=C/CN1C(=O)c2cccc(O)c2N(C)c2c(O)cc(O)cc21 (stereo not shown) [Compound 80, 10-(7-methoxy-3,7,11-trimethyldodeca-2,10-dienyl)-4,6,8-trihydroxy-5-methyl-5,10-dihydro-dibenzo[b,e][1,4]diazepin-11-one] | >64 µg/mL | 
CCN1c2c(O)cccc2C(=O)N(C/C=C(\C)CC/C=C(\C)CCC=C(C)C)c2cc(O)cc(O)c21 [Compound 14, 10-farnesyl-4,6,8-trihydroxy-5-ethyl-5,10-dihydro-dibenzo[b,e][1,4]diazepin-11-one] | 43.9 µg/mL | 
CCN1c2c(O)cccc2C(=O)N(CC=C(C)CCC=C(C)CCCC(C)(C)OC)c2cc(O)cc(O)c21 [Compound 85, 10-(11-methoxy-3,7,11-trimethyl-2,6-dodecadienyl)-4,6,8-trihydroxy-5-ethyl-5,10-dihydro-dibenzo[b,e][1,4]diazepin-11-one] | >64 µg/mL | 
CC(C)CCCC(C)CCCC(C)CCN1C(=O)c2cccc(O)c2N(C)c2c(O)cc(O)cc21 (stereo not shown) [Compound 78, 10-(3,7,11-trimethyldodecyl)-4,6,8-trihydroxy-5-methyl-5,10-dihydro-dibenzo[b,e][1,4]diazepin-11-one] | 9.89 µg/mL | 
CC[C@H](C)C(=O)O[C@H]1C[C@@H](C)C=C2C=C[C@H](C)[C@H](CC[C@@H]3C[C@@H](O)CC(=O)O3)[C@H]21 [lovostatin, lovastatin, reference compound] |  | effect on protein prenylation (mobility shift of Ras, RAP1A and HDJ2) [1]: expected mobility shift
COC(C)(C)CCCC(C)=CCCC(C)=CCN1C(=O)c2cccc(O)c2Nc2c(O)cc(O)cc21 [Compound 82, 10-(11-methoxy-3,7,11-trimethyl-2,6-dodecadienyl)-4,6,8-trihydroxy-5,10-dihydro-dibenzo[b,e][1,4]diazepin-11-one] | >64 µg/mL | 
COC(C)(CCC=C(C)C)CCC/C(C)=C/CN1C(=O)c2cccc(O)c2Nc2c(O)cc(O)cc21 (stereo not shown) [Compound 83] | 12.4 µg/mL | GI50 [2]: 19.6 µM; GI50 ([3]; 96 hrs): 13.2 µM; GI50 (SF268 (CNS)): 9.74 µM; GI50 [4]: 6.71 µM
[2H]C([2H])([2H])N1c2c(O)cccc2C(=O)N(C/C=C(\C)CC/C=C(\C)CCC=C(C)C)c2cc(O)cc(O)c21 [Compound 98, 10-Farnesyl-4,6,8-trihydroxy-5-(trideuteriomethyl)-5,10-dihydro-dibenzo[b,e][1,4]diazepin-11-one] | 4.5 µg/mL | 
CC(C)=CCC/C(C)=C/CC/C(C)=C/CN1C(=O)c2cccc(O)c2N(C)c2c1cc(O)c(Br)c2O [Compound 99] |  | IC50 [5]: 0.01 µM
CCCCCCN1c2c(O)cccc2C(=O)N(C/C=C(\C)CC/C=C(\C)CCC=C(C)C)c2cc(O)cc(O)c21 [Compound 67, 10-farnesyl-4,6,8-trihydroxy-5-n-hexyl-5,10-dihydro-dibenzo[b,e][1,4]diazepin-11-one] | >64 µg/mL | 
CC(C)=CCCC1(C)OC1CC/C(C)=C/CN1C(=O)c2cccc(O)c2Nc2c(O)cc(O)cc21 (stereo not shown) [Compound 17, 10-(3,7,11-trimethyl-6,7-epoxydodeca-2,10-dienyl)-4,6,8-trihydroxy-5,10-dihydro-dibenzo[b,e][1,4]diazepin-11-one] | 35.0 µg/mL | 
COC(C)(C)CCCC(C)(CCCC(C)=CCN1C(=O)c2cccc(O)c2Nc2c(O)cc(O)cc21)OC (stereo not shown) [Compound 84, 10-(7,11-dimethoxy-3,7,11-trimethyl-2-dodecenyl)-4,6,8-trihydroxy-5,10-dihydro-dibenzo[b,e][1,4]diazepin-11-one] | >32 µg/mL | 
CCC(C)N1c2c(O)cccc2C(=O)N(C/C=C(\C)CC/C=C(\C)CCC=C(C)C)c2cc(O)cc(O)c21 (stereo not shown) [Compound 77, 10-Farnesyl-4,6,8-trihydroxy-5-sec-butyl-5,10-dihydro-dibenzo[b,e][1,4]diazepin-11-one] | 60.9 µg/mL | 
CC(=O)NC(C)(CCC=C(C)C)CCCC(C)=CCN1C(=O)c2cccc(O)c2Nc2c(O)cc(O)cc21 (stereo not shown) [Compound 92, 10-(7-acetamido-3,7,11-trimethyldodeca-2,10-dienyl)-4,6,8-trihydroxy-5,10-dihydro-dibenzo[b,e][1,4]diazepin-11-one] | >64 µg/mL | 
C/C(=C\CN1C(=O)c2cccc(O)c2Nc2c(O)cc(O)cc21)CC/C=C(\C)CCC1OC1(C)C (stereo not shown) [Compound 18] | >64 µg/mL | GI50 ([3]; Homo sapiens, 96 h): > 30 µM
